Source: paper PMC7154053, “Chemical, Metabolic, and Cellular Characterization of a FtsZ Inhibitor Effective Against Burkholderia cenocepacia” (Frontiers in Microbiology, 2020)
Values after ≈ are worked out from the molar mass of the structure shown. Where two headings read alike, the source gives them in different places.

Columns and labels:
[1] = system: B. cenocepacia FCF19; assay: MIC, 2-fold microdilution, resazurin method; type: cell-based, Burkholderia cenocepacia; details: Burkholderia cenocepacia; clinical isolate FCF19
Protocol: (§1) Burkholderia cenocepacia strains, Escherichia coli ATCC 25922, Pseudomonas aeruginosa PAO1, and Staphylococcus aureus ATCC 25923 were grown in Luria-Bertani (LB) medium (Difco), if not differently specified, with shaking at 200 rpm, or on LB agar, at 37°C.
(§2) The microtiter plates were incubated at 37°C for 48 (for B. cenocepacia) or 24 h (for all the other strains) and growth was determined by the resazurin method (Martin et al., [2006]). A solution of resazurin sodium salt (Sigma Aldrich) was prepared at 0.01% in distilled water and filter-sterilized. Thirty microliter of resazurin solution were added to each well after 1 or 2 days of incubation at 37°C, and the microtiters were re-incubated at the same temperature for 4 h. The MIC was defined as the lowest concentration of the drug that prevented a change in color from blue to pink, which indicates bacterial growth.
(§3) Three independent biological replicates were used for each MIC determination.

[2] = system: B. cenocepacia J2315; assay: MIC, 2-fold microdilution, resazurin method; type: cell-based, Burkholderia cenocepacia; details: Burkholderia cenocepacia
Protocol: as §1, §2, §3

[3] = system: B. cenocepacia FCF22; assay: MIC, 2-fold microdilution, resazurin method; type: cell-based, Burkholderia cenocepacia; details: Burkholderia cenocepacia; clinical isolate FCF22
Protocol: as §1, §2, §3

[4] = molecular target: Burkholderia cenocepacia purified FtsZ protein (Burkholderia cenocepacia, UniProt B4E5Y7); assay: biochemical; type: biochemical; details: Yes/No
Protocol: (§4) All the recombinant FtsZ proteins were expressed at 20°C overnight in E. coli BL21(DE3) cells, upon induction with 0.5 mM IPTG, and purified using the same protocol assessed for the wild-type B. cenocepacia FtsZ (Hogan et al., [2018]).
(§5) GTPase enzyme activity was determined using a pyruvate kinase/L-lactic dehydrogenase (PK/LDH) spectrophotometric coupled assay (Ingerman and Nunnari, [2005]). The assays were performed at 30°C, in a reaction mixture containing […] Hepes pH 7.5, 5 mM MgCl2, 5 mM KCl, 10 U PK/LDH, 0.25 mM NADH, 0.25 mM PEP, and 5–10 μM FtsZ, and initiated by the addition of 0.5 mM GTP. Alternatively, GTPase activity was determined by measuring the release of phosphate using the malachite green assay (Baykov et al., [1988]).
(1) A[I]=A[0]×(1-[I]/[I]+IC50)
where A[I] is the enzyme activity at inhibitor concentration [I] and A[0] is the enzyme activity without inhibitor.

[5] = molecular target: T1, PAO1-FtsZ (Pseudomonas aeruginosa, UniProt P47204); assay: FtsZ GTPase activity assay (kinetics and inhibition); type: biochemical; details: read-out: IC50 toward PAO1-FtsZ
T1 construct: His-tag of pET-28a followed by PreScission site (His-tag inferred from the vector; the site is encoded in the forward primer) (N); made in house; host or cells: E. coli BL21(DE3)
Protocol: The gene ftsZ (BCAL3457) was amplified from B. cenocepacia FCF19 using the primers pet28presFtsZfor (5′-[…]-3′) and pet28ftsZrev (5′-[…]-3′). The gene ftsZ of P. aeruginosa was amplified from the genomic DNA using the primers ftsZPAOfor28a (5′-[…] 3′) and ftsZPAOrev28a (5′-[…]-3′). The PCR products were cloned into the pET-28a vector (Novagen) using the In-Fusion HD Cloning kit (TaKaRa), according to the manufacturer's instructions.
as §4, §5
Steady-state kinetic analysis was performed by assaying the activity at different GTP concentrations and parameters determined by fitting the data to the Michaelis-Menten equation using Origin 8 software. […]

[6] = system: P. aeruginosa PAO1; assay: MIC, 2-fold microdilution, resazurin method; type: cell-based; details: Pseudomonas aeruginosa, PAO1
Protocol: as §1, §2, §3

[7] = system: E. coli ATCC 25922; assay: MIC, 2-fold microdilution, resazurin method; type: cell-based; details: Escherichia coli, ATCC25922
Protocol: as §1, §2, §3

[8] = system: P. aeruginosa; assay: Checkerboard assay with efflux pump inhibitor PaβN MC-207.110; type: cell-based, Pseudomonas aeruginosa
Protocol: as §2, with “growth. […] Three independent biological replicates were used for each MIC determination.” for “growth.”

Burkholderia cenocepacia purified FtsZ protein, sequence (B4E5Y7 entry or part of it): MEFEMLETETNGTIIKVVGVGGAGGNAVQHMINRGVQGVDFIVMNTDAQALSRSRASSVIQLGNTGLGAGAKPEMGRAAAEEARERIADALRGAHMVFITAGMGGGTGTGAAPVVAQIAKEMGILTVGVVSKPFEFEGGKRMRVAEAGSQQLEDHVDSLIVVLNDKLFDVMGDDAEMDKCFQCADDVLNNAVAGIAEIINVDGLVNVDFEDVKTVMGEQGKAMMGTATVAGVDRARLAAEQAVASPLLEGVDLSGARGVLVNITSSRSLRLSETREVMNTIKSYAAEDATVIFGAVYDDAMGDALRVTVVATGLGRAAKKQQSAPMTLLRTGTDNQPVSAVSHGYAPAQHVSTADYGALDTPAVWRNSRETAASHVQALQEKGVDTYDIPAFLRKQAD
T1 sequence (P47204 2-316): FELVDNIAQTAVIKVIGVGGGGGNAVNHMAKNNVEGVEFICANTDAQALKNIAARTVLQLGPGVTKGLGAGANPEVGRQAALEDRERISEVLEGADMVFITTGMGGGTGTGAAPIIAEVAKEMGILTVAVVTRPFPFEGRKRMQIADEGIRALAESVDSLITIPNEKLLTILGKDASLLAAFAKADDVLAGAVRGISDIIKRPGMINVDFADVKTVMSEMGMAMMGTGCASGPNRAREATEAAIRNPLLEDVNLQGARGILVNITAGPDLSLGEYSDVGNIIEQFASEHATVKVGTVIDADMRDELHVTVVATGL

SMILES: COC(=O)CSc1ccc2nsnc2c1[N+](=O)[O-] [C109, methyl [(4-nitro-2,1,3-benzothiadiazol-5-yl)thio]acetate]
- MIC [1]: 128 µg/mL (≈ 449 µM)
- MIC ([2]; J2315, read-out: MIC (µg/ml) B. cenocepacia J2315): 8 µg/mL (≈ 28 µM)
- MIC ([2]; J2315, LB, 48 h, read-out: MIC B. cenocepacia J2315): 8 µg/mL (≈ 28 µM)
- MIC [3]: 256 µg/mL (≈ 897 µM)
- Inhibition of Bc FtsZ At 100 μM ([4]; 100 μM compound): Yes
- Inhibits B. cenocepacia FtsZ GTPase at 100µM? ([4]; 100 µM, Supplementary Table 1): Yes
- IC50 [5]: 3.5 ± 1.9 µM
- MIC ([6]; LB, 24 h, read-out: MIC P. aeruginosa PAO1): 128 µg/mL (≈ 449 µM)
- MIC ([6]; Supplementary Table 1, read-out: MIC (µg/ml) P. aeruginosa PAO1): 128 µg/mL (≈ 449 µM)
- MIC ([7]; LB, 24 h, read-out: MIC E. coli 25922): 8 µg/mL (≈ 28 µM)
- MIC ([7]; Supplementary Table 1, read-out: MIC (µg/ml) E. coli 25922): 8 µg/mL (≈ 28 µM)
- MIC ([8]; Pseudomonas aeruginosa, read-out: MIC in the presence of MC-207.110, P. aeruginosa): 1 µg/mL
- effect of combination with MC-207.110 ([8]; checkerboard, P. aeruginosa): synergistic effect
